Experimental data: patent US20240398784A1, “C-LINKED ISOQUINOLINE AMIDES AS LRRK2 INHIBITORS, PHARMACEUTICAL COMPOSITIONS, AND USES THEREOF” (Merck Sharp & Dohme LLC, priority 2021, published 2024)

Biological target: LRRK2 G2019S (Homo sapiens, UniProt Q5S007, G2019S)
Assay: LRRK2 G2019S Km ATP LanthaScreen assay
Format: biochemical
Conditions: not given

LRRK2 G2019S, sequence (Q5S007 whole entry G2019S): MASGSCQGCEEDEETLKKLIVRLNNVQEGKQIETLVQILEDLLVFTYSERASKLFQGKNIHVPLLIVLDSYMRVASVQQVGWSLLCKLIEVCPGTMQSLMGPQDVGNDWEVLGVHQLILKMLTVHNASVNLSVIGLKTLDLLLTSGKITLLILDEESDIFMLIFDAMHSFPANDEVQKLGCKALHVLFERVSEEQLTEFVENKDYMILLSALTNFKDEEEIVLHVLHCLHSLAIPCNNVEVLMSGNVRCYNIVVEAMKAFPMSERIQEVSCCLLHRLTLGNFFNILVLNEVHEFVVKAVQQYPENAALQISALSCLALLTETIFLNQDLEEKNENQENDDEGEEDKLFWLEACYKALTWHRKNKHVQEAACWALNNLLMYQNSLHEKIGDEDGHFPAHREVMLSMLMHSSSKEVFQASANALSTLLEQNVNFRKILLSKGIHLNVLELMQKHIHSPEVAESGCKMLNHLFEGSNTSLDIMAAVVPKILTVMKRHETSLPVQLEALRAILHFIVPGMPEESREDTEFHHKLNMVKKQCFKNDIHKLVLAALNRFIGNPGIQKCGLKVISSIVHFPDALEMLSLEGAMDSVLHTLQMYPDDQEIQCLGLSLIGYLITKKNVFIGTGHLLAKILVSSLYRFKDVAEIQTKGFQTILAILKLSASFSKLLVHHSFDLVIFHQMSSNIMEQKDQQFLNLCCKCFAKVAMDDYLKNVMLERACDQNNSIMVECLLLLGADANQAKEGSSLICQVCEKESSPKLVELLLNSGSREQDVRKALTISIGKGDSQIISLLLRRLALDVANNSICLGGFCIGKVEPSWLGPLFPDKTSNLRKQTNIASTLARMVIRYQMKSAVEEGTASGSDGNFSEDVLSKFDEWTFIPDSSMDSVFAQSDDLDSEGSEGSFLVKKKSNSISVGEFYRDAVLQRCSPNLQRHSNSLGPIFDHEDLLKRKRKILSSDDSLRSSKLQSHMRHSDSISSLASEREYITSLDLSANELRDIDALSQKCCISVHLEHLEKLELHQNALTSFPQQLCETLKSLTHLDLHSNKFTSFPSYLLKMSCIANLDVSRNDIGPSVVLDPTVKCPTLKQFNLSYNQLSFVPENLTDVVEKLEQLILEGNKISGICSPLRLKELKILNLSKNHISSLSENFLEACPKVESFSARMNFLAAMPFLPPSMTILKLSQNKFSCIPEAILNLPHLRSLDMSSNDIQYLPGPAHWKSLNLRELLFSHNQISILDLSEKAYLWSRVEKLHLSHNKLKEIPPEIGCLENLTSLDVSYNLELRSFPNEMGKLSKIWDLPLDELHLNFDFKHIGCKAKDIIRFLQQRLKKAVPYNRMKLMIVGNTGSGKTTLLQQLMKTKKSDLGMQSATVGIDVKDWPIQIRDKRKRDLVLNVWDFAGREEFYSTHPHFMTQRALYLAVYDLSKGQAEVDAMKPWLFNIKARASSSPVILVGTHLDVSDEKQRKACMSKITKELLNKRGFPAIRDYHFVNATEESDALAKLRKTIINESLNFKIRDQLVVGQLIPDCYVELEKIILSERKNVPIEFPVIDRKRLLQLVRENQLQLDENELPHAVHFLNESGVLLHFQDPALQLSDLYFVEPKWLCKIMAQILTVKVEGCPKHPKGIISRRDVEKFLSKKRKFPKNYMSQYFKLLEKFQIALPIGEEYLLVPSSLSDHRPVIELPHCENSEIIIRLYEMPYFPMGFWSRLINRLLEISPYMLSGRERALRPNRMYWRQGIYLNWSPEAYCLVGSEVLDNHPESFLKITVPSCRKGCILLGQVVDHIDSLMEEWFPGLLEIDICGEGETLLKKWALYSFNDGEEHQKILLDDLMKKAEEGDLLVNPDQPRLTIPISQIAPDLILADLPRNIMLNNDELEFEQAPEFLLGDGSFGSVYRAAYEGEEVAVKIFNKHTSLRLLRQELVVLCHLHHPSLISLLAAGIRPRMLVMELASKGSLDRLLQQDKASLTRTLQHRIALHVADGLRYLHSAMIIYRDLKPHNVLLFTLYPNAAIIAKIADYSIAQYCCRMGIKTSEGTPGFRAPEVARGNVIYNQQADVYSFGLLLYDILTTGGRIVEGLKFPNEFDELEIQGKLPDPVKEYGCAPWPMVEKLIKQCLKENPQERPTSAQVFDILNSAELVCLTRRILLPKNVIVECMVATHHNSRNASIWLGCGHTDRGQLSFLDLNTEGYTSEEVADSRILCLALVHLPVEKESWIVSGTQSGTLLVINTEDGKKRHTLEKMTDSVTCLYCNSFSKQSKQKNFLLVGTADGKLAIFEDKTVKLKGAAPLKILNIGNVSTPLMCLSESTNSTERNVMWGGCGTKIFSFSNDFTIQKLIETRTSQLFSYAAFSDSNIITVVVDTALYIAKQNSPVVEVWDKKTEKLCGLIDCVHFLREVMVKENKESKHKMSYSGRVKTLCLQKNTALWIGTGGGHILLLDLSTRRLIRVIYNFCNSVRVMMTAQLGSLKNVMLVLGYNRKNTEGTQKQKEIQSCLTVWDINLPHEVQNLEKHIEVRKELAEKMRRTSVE

| LRRK2 pIC50 | SMILES |
| --- | --- |
| 8.96 | CO[C@H]1C[C@H](C(=O)Nc2cc3cc(C4(C#N)CC45CC5)ccc3cn2)C1.O=C(O)C(F)(F)F (stereo partly drawn) [Ex-1.1] |

Same assay, conditions: read-out: LRRK2 pIC50 (converted)

| SMILES | IC50 [nM] |
| --- | --- |
| CC1(N2CCC(c3cc4cc(NC(=O)C5CCC6(CCC6)OC5)ncc4cc3Cl)CC2)COCC1O (single isomer, unassigned) [Ex-4.23, N-(7-chloro-6-(1-(4-hydroxy-3-methyltetrahydrofuran-3-yl)piperidin-4-yl)isoquinolin-3-yl)-5-oxaspiro[3.5]nonane-7-carboxamide] | 2.34 |
| N#CC1(c2ccc3cnc(NC(=O)C4CC45CCOC5)cc3c2)CC12CC2 (stereo not drawn) [Ex-2.63] | 12.3 |
| N#CC1(c2ccc3cnc(NC(=O)Cc4cnn(C(F)F)c4)cc3c2)CC12CC2 (single isomer, unassigned) [Ex-1.43, (R or S)-N-(6-(1-cyanospiro[2.2]pentan-1-yl)isoquinolin-3-yl)-2-(1-(difluoromethyl)-1H-pyrazol-4-yl)acetamide] | 7.08 |
| Cn1ncc(C2CC2C(=O)Nc2cc3cc(C4(C#N)CC45CC5)ccc3cn2)c1Cl (stereo not drawn) [Ex-2.78] | 16.2 |
| CC(C)C1CC(C(=O)Nc2cc3cc(C4CCN(C5(C)COCC5O)CC4)c(Cl)cc3cn2)C1 (racemic) [Ex-1.22, Rac-N-(7-chloro-6-(1-(4-hydroxy-3-methyltetrahydrofuran-3-yl)piperidin-4-yl)isoquinolin-3-yl)-3-isopropylcyclobutane-1-carboxamide] | 0.977 |
| CC(C(=O)Nc1cc2cc(C3(C#N)CC34CC4)ccc2cn1)c1cnn(C)c1 (stereo not drawn) [Ex-2.109] | 1.91 |
| O=C(Nc1cc2cc(C3CCN(C4COC4)CC3)c(Cl)cc2cn1)c1cocn1 [Ex-1.38, N-(7-chloro-6-(1-(oxetan-3-yl)piperidin-4-yl)isoquinolin-3-yl)oxazole-4-carboxamide] | 11.5 |
| Cn1cc(C(=O)Nc2cc3cc(C4CCN(C5COCC5O)CC4)c(Cl)cc3cn2)cn1 (stereo not drawn) [Ex-3.5] | 0.631 |
| CC1(N2CCC(c3cc4cc(NC(=O)c5cnn(C6CC6)c5)ncc4cc3Cl)CC2)COCC1O (single isomer, unassigned) [Ex-1.48, N-(7-chloro-6-(1-((3R,4R or 3S,4S)-4-hydroxy-3-methyltetrahydrofuran-3-yl)piperidin-4-yl)isoquinolin-3-yl)-1-cyclopropyl-1H-pyrazole-4-carboxamide] | 55 |
| CC1(C)CC(C(=O)Nc2cc3cc(C4(C#N)CC45CC5)ccc3cn2)CCO1 (stereo not drawn) [Ex-2.58] | 11.2 |
| CC1(N2CCC(c3cc4cc(NC(=O)C5CC5F)ncc4cc3Cl)CC2)COCC1O (stereo not drawn) [Ex-3.4] | 1.55 |
| CC(C)N1CCOC(CC(=O)Nc2cc3cc(C4(C#N)CC45CC5)ccc3cn2)C1 (single isomer, unassigned) [Ex-1.46, (R or S)-N-(6-(1-cyanospiro[2.2]pentan-1-yl)isoquinolin-3-yl)-2-(4-isopropylmorpholin-2-yl)acetamide] | 13.8 |
| CC1(N2CCC(c3cc4cc(NC(=O)C5CC56CCC6)ncc4cc3Cl)CC2)COCC1O (single isomer, unassigned) [Ex-4.7, N-(7-chloro-6-(1-(4-hydroxy-3-methyltetrahydrofuran-3-yl)piperidin-4-yl)isoquinolin-3-yl)spiro[2.3]hexane-1-carboxamide] | 0.0813 |
| CC(C(=O)Nc1cc2cc(C3CCN(C4(C)COCC4O)CC3)c(Cl)cc2cn1)c1cnn(C)c1 (stereo not drawn) [Ex-2.106] | 0.288 |
| O=C(Nc1cc2cc(C3CCN(C4COC4)CC3)c(Cl)cc2cn1)[C@@H]1CCCCO1 [Ex-1.10, (S)-N-(7-chloro-6-(1-(oxetan-3-yl)piperidin-4-yl)isoquinolin-3-yl)tetrahydro-2H-pyran-2-carboxamide] | 3.98 |
| CC1(N2CCC(c3cc4cc(NC(=O)C5(Cn6ccnc6)CC5)ncc4cc3Cl)CC2)COCC1O (stereo not drawn) [Ex-3.3] | 3.31 |
| N#CC1(c2ccc3cnc(NC(=O)C4CC4c4cccnc4)cc3c2)CC12CC2 (stereo not drawn) [Ex-2.45] | 11.2 |
| N#CC1(c2ccc3cnc(NC(=O)C4CC4c4ccccn4)cc3c2)CC12CC2 (stereo not drawn) [Ex-2.39] | 2.29 |

Further lines, results first:

| IC50 [nM] | SMILES |
| --- | --- |
| 60.3 | CC1CC1(C#N)c1ccc2cnc(NC(=O)C3CC3)cc2c1 (single isomer, unassigned) [Ex-18.6, (R or S)-N-(6-(1-cyano-2-methylcyclopropyl)isoquinolin-3-yl)cyclopropanecarboxamide] |
| 0.178 | Cn1cc(C2CC2C(=O)Nc2cc3cc(C4CCN(C5(C)COCC5F)CC4)c(Cl)cc3cn2)cn1 (single isomer, unassigned) [Ex-6.31, N-(7-chloro-6-(1-(4-fluoro-3-methyltetrahydrofuran-3-yl)piperidin-4-yl)isoquinolin-3-yl)-2-(1-methyl-1H-pyrazol-4-yl)cyclopropane-1-carboxamide] |
| 33.1 | CCC1C(C(=O)Nc2cc3cc(C4CC(C#N)C4)c(Cl)cc3cn2)C1c1cnn(C)c1 (stereo not drawn) [Ex-9.17, N-(7-chloro-6-(3-cyanocyclobutyl)isoquinolin-3-yl)-2-ethyl-3-(1-methyl-1H-pyrazol-4-yl)cyclopropane-1-carboxamide] |
| 1.66 | CC1(N2CCC(c3cc4cc(NC(=O)C5CC56CCOCC6)ncc4cc3Cl)CC2)COCC1F (single isomer, unassigned) [Ex-6.25, N-(7-chloro-6-(1-(4-fluoro-3-methyltetrahydrofuran-3-yl)piperidin-4-yl)isoquinolin-3-yl)-6-oxaspiro[2.5]octane-1-carboxamide] |
| 0.0813 | COC1COCC1(C)N1CCC(c2cc3cc(NC(=O)C4CC45CCOCC5)ncc3cc2Cl)CC1 (single isomer, unassigned) [Ex-6.22, N-(7-chloro-6-(1-(4-methoxy-3-methyltetrahydrofuran-3-yl)piperidin-4-yl)isoquinolin-3-yl)-6-oxaspiro[2.5]octane-1-carboxamide] |
| 44.7 | CC1C(C(=O)Nc2cc3cc(C4CCN(C5(C)COCC5O)CC4)c(Cl)cc3cn2)C12CCOCC2 (single isomer, unassigned) [Ex-10.7, N-(7-chloro-6-(1-(4-hydroxy-3-methyltetrahydrofuran-3-yl)piperidin-4-yl)isoquinolin-3-yl)-2-methyl-6-oxaspiro[2.5]octane-1-carboxamide] |
| 22.4 | CC(C)n1nccc1C1CC1C(=O)Nc1cc2cc(C3CCN(C4(C)COCC4O)CC3)c(Cl)cc2cn1 (single isomer, unassigned) [Ex-4.63, N-(7-chloro-6-(1-(4-hydroxy-3-methyltetrahydrofuran-3-yl)piperidin-4-yl)isoquinolin-3-yl)-2-(1-isopropyl-1H-pyrazol-5-yl)cyclopropane-1-carboxamide] |
| 0.0813 | CC1(N2CCC(c3cc4cc(NC(=O)C5C6CCOCC65)ncc4cc3Cl)CC2)COCC1F (single isomer, unassigned) [Ex-6.40, N-(7-chloro-6-(1-(4-fluoro-3-methyltetrahydrofuran-3-yl)piperidin-4-yl)isoquinolin-3-yl)-3-oxabicyclo[4.1.0]heptane-7-carboxamide] |
| 0.282 | CCC1C(C(=O)Nc2cc3cc(C4CCC(N5CC(F)C5)CC4)c(Cl)cc3cn2)C1c1cnn(C)c1 (single isomer, unassigned) [Ex-11.7, N-(7-chloro-6-(4-(3-fluoroazetidin-1-yl)cyclohexyl)isoquinolin-3-yl)-2-ethyl-3-(1-methyl-1H-pyrazol-4-yl)cyclopropane-1-carboxamide] |
| 10.5 | CC1(C)CCC(C(=O)Nc2cc3cc(C4CCC(N5CCC(F)C5)CC4)c(Cl)cc3cn2)CO1 (single isomer, unassigned) [Ex-5.20, N-(7-chloro-6-(4-(3-fluoropyrrolidin-1-yl)cyclohexyl)isoquinolin-3-yl)-6,6-dimethyltetrahydro-2H-pyran-3-carboxamide] |
| 27.5 | Cn1cc(C(C)(C)C(=O)Nc2cc3cc(C4CCN(C5(C)COCC5F)CC4)c(Cl)cc3cn2)cn1 (single isomer, unassigned) [Ex-6.54, N-(7-chloro-6-(1-(4-fluoro-3-methyltetrahydrofuran-3-yl)piperidin-4-yl)isoquinolin-3-yl)-2-methyl-2-(1-methyl-1H-pyrazol-4-yl)propenamide] |
| 2.45 | CC(C)n1nccc1C1CC1C(=O)Nc1cc2cc(C3CCN(C4(C)COCC4O)CC3)c(Cl)cc2cn1 (single isomer, unassigned) [Ex-4.64, N-(7-chloro-6-(1-(4-hydroxy-3-methyltetrahydrofuran-3-yl)piperidin-4-yl)isoquinolin-3-yl)-2-(1-isopropyl-1H-pyrazol-5-yl)cyclopropane-1-carboxamide] |
| 7.08 | CC1(C)C(C(=O)Nc2cc3cc(C4CCN(C5(C)COCC5O)CC4)c(Cl)cc3cn2)C1c1ccccn1 (single isomer, unassigned) [Ex-4.45, N-(7-chloro-6-(1-(4-hydroxy-3-methyltetrahydrofuran-3-yl)piperidin-4-yl)isoquinolin-3-yl)-2,2-dimethyl-3-(pyridin-2-yl)cyclopropane-1-carboxamide] |
| 9.12 | O=C(Nc1cc2cc(C3CCN(C4COC4)CC3)c(Cl)cc2cn1)C1(F)CC1 [Ex-7.8, N-(7-chloro-6-(1-(oxetan-3-yl)piperidin-4-yl)isoquinolin-3-yl)-1-fluorocyclopropane-1-carboxamide] |
| 2.57 | CCOC1CC2(C1)CC2C(=O)Nc1cc2cc(C3CCN(C4(C)COCC4O)CC3)c(Cl)cc2cn1 (single isomer, unassigned) [Ex-4.32, N-(7-chloro-6-(1-(4-hydroxy-3-methyltetrahydrofuran-3-yl)piperidin-4-yl)isoquinolin-3-yl)-5-ethoxyspiro[2.3]hexane-1-carboxamide] |
| 3.02 | CCOC1CC2(C1)CC2C(=O)Nc1cc2cc(C3CCN(C4(C)COCC4O)CC3)c(Cl)cc2cn1 (single isomer, unassigned) [Ex-4.30, N-(7-chloro-6-(1-(4-hydroxy-3-methyltetrahydrofuran-3-yl)piperidin-4-yl)isoquinolin-3-yl)-5-ethoxyspiro[2.3]hexane-1-carboxamide] |
| 0.708 | CC1(N2CCC(c3cc4cc(NC(=O)C5CC5c5ccco5)ncc4cc3Cl)CC2)COCC1O (single isomer, unassigned) [Ex-4.65, N-(7-chloro-6-(1-(4-hydroxy-3-methyltetrahydrofuran-3-yl)piperidin-4-yl)isoquinolin-3-yl)-2-(furan-2-yl)cyclopropane-1-carboxamide] |
